# How the values were obtained:
# [1] = biological target: T1, human MER (528-end) (Homo sapiens, UniProt Q12866); experiment: HTRF kinase activity biochemical assay, MER; conditions: 10 μM ATP, 30 minutes pre-incubation; read-out: HTRF MERTK IC50
# T1 construct: human MER (528-end); purchased Camnabio, Japan
# T1 sequence (Q12866 528-999 limits assumed): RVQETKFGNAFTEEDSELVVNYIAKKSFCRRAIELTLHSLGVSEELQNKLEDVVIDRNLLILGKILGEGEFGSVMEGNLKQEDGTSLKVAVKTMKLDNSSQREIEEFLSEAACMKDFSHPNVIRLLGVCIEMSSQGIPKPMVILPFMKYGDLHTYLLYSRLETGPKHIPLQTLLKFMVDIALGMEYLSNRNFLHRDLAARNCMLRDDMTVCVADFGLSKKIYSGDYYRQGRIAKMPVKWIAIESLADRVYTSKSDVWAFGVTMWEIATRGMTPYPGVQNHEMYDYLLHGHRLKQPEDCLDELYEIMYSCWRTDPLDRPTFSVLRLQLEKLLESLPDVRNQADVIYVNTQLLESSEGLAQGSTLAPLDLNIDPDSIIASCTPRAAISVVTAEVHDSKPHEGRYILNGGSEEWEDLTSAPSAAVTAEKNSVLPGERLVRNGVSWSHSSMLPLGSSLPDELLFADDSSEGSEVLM
# Procedure: (§1) For the SAR (structure-activity relationship) and compound screening, HTRF (Homogeneous Time Resolved Fluorescence) kinase activity assay was employed for all MER, AXL and TYRO3 kinases using Cisbio HTRF® KinEASE™-TK kit (Cisbio, USA). The kit included biotin-labeled TK substrate, streptavidin-XL665, Eu3+-cryptate-labeled TK antibody and HTRF® Detection buffer. There are two main steps in the kinase assay: kinase reaction and detection of phosphorylated substrate. The reaction was carried out in white low volume 384-well plate (Corning, USA) with 25 nL compound in dimethyl sulfoxide in each well. […] After 1 hour incubation at room temperature, the fluorescence intensity was measured with Envision[…] plate reader (PerkinElmer, USA). Upon excitation at 340 nm by UV, the energy from Eu3+ donor of the antibody is transferred to the FRET acceptor XL665, and […] emits light at 665 nm.
# [2] = biological target: T2, human AXL (473-end) (Homo sapiens, UniProt P30530); experiment: HTRF kinase activity biochemical assay, AXL; conditions: 10 μM ATP, 30 minutes pre-incubation
# T2 construct: human AXL (473-end); purchased SignalChem, Canada
# T2 sequence (P30530 473-894 limits assumed): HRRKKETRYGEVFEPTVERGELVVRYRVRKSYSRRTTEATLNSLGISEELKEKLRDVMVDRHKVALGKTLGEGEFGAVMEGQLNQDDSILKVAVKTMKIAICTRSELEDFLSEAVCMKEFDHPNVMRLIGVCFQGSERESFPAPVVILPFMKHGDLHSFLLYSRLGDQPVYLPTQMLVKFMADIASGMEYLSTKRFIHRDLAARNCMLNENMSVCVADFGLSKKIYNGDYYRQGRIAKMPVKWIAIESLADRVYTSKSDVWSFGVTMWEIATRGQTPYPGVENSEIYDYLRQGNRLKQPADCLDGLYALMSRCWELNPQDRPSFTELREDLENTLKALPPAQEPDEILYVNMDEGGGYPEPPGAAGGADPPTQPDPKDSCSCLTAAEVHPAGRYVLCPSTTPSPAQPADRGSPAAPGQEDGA
# Procedure: as §1
# [3] = biological target: T3, human TYRO3 (455-end) (Homo sapiens, UniProt Q06418); experiment: HTRF kinase activity biochemical assay, TYRO3; conditions: 10 μM ATP, 30 minutes pre-incubation; read-out: HTRF TYRO IC50
# T3 construct: TYRO3 (455-end); purchased SignalChem, Canada
# T3 sequence (Q06418 455-890 limits assumed): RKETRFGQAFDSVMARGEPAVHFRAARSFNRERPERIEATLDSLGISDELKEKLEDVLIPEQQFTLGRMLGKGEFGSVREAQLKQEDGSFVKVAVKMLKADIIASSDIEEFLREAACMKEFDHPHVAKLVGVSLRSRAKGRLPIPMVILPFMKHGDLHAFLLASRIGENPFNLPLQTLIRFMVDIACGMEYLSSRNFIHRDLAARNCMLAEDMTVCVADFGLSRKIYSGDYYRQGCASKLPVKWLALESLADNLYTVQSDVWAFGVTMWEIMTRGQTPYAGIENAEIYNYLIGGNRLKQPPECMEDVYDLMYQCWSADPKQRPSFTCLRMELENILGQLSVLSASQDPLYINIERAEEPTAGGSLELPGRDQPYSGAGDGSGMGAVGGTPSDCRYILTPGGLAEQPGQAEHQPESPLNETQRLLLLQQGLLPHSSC
# Procedure: as §1
SMILES,IC50 [1],IC50 [2],IC50 [3]
"CN(C)C1c2ccc(-c3ccc(CO[C@H]4CCC[C@@H]4NC(=O)c4cc(-c5cnn(C)c5)cnc4N)cc3)cc2CC1(C)C (stereo partly drawn) [Example 109, 2-amino-N-[(1S,2S)-2-({4-[1-(dimethylamino)-2,2-dimethyl-2,3-dihydro-1H-inden-5-yl]phenyl}methoxy)cyclopentyl]-5-(1-methyl-1H-pyrazol-4-yl)pyridine-3-carboxamide]",10 to 100 nM,< 10 nM,> 1000 nM
"Cn1cc(-c2cnc(N)c(C(=O)N[C@H]3CCC[C@@H]3OCc3ccc(-c4ccc5c(ccn5CCC(=O)O)c4)cc3)c2)cn1 [Example 58, 3-{5-[4-({[(1S,2S)-2-{[2-amino-5-(1-methyl-1H-pyrazol-4-yl)pyridine-3-carbonyl]amino}cyclopentyl]oxy}methyl)phenyl]-1H-indol-1-yl}propanoic acid]",10 to 100 nM,100 to 1000 nM,> 1000 nM
"Cc1[nH]c2ccc(-c3ccc(CO[C@H]4CCC[C@@H]4NC(=O)c4cc(-c5cnn(C)c5)cnc4N)cc3)cc2c1C [Example 55, 2-amino-N-[(1S,2S)-2-{[4-(2,3-dimethyl-1H-indol-5-yl)phenyl]methoxy}cyclopentyl]-5-(1-methyl-1H-pyrazol-4-yl)pyridine-3-carboxamide]",10 to 100 nM,10 to 100 nM,> 1000 nM
"CN1CCN([C@@H]2CC(C)(C)c3cc(-c4ccc(CO[C@H]5CCC[C@@H]5NC(=O)c5cc(-c6cnn(C)c6)cnc5N)cc4)ccc32)CC1 [Example 145, 2-amino-N-[(1S,2S)-2-({4-[(1R)-3,3-dimethyl-1-(4-methylpiperazin-1-yl)-2,3-dihydro-1H-inden-5-yl]phenyl}methoxy)cyclopentyl]-5-(1-methyl-1H-pyrazol-4-yl)pyridine-3-carboxamide]",10 to 100 nM,10 to 100 nM,> 1000 nM
"Cn1cc(-c2cnc(N)c(C(=O)N[C@H]3CCC[C@@H]3OCc3ccc(-c4ccc5c(ccn5CC(=O)O)c4)cc3)c2)cn1 [Example 61, {5-[4-({[(1S,2S)-2-{[2-amino-5-(1-methyl-1H-pyrazol-4-yl)pyridine-3-carbonyl]amino}cyclopentyl]oxy}methyl)phenyl]-1H-indol-1-yl}acetic acid]",10 to 100 nM,10 to 100 nM,> 1000 nM
"Nc1ncc(-c2cccnc2F)cc1C(=O)N[C@H]1CCC[C@@H]1OCc1ccc(-c2ccc3c(c2)CC[C@@H]3N2CCN(C(CO)CO)CC2)cc1 [Example 129, 6-amino-N-{(1S,2S)-2-[(4-{(1S)-1-[4-(1,3-dihydroxypropan-2-yl)piperazin-1-yl]-2,3-dihydro-1H-inden-5-yl}phenyl)methoxy]cyclopentyl}-2′-fluoro[3,3′-bipyridine]-5-carboxamide]",< 10 nM,< 10 nM,> 1000 nM
"Cn1cc(-c2cnc(N)c(C(=O)N[C@H]3CCC[C@@H]3OCc3ccc(-c4ccc5c(c4)C4(CC4)CN(C4CCN(CCO)CC4)C5)cc3)c2)cn1 [Example 72, 2-amino-N-{(1S,2S)-2-[(4-{2′-[1-(2-hydroxyethyl)piperidin-4-yl]-2′,3′-dihydro-1′H-spiro[cyclopropane-1,4′-isoquinolin]-6′-yl}phenyl)methoxy]cyclopentyl}-5-(1-methyl-1H-pyrazol-4-yl)pyridine-3-carboxamide]",100 to 1000 nM,> 1000 nM,> 1000 nM
"CN(C)CC(=O)NC1Cc2ccc(-c3ccc(CO[C@H]4CCC[C@@H]4NC(=O)c4cc(-c5cnn(C)c5)cnc4N)cc3)cc2C1 (stereo partly drawn) [Example 9, 2-amino-N-{(1S,2S)-2-[(4-{2-[2-(dimethylamino)acetamido]-2,3-dihydro-1H-inden-5-yl}phenyl)methoxy]cyclopentyl}-5-(1-methyl-1H-pyrazol-4-yl)pyridine-3-carboxamide]",< 10 nM,10 to 100 nM,> 1000 nM

# Continued, values first:
IC50 [1],IC50 [2],IC50 [3],SMILES
< 10 nM,< 10 nM,100 to 1000 nM,"Nc1ncc(-c2cncc(F)c2)cc1C(=O)N[C@H]1CCC[C@@H]1OCc1ccc(-c2ccc3c(c2)OCCC3N2CCN(CCO)CC2)cc1 (stereo partly drawn) [Example 132, 6-amino-5′-fluoro-N-{(1S,2S)-2-[(4-{4-[4-(2-hydroxyethyl)piperazin-1-yl]-3,4-dihydro-2H-1-benzopyran-7-yl}phenyl)methoxy]cyclopentyl}[3,3′-bipyridine]-5-carboxamide]"
< 10 nM,< 10 nM,10 to 100 nM,"Cn1cc(-c2cnc(N)c(C(=O)N[C@H]3CCC[C@@H]3OCc3ccc(-c4ccc5c(c4)CCC5N4CCN(CC(O)CO)CC4)cc3)c2)cn1 (stereo partly drawn) [Example 81, 2-amino-N-{(1S,2S)-2-[(4-{1-[4-(2,3-dihydroxypropyl)piperazin-1-yl]-2,3-dihydro-1H-inden-5-yl}phenyl)methoxy]cyclopentyl}-5-(1-methyl-1H-pyrazol-4-yl)pyridine-3-carboxamide]"
< 10 nM,< 10 nM,10 to 100 nM,"Nc1ncc(-c2ccc(F)nc2)cc1C(=O)N[C@H]1CCC[C@@H]1OCc1ccc(-c2ccc3c(c2)CCCC3N2CCN(CCO)CC2)cc1 (stereo partly drawn) [Example 106, 6-amino-6′-fluoro-N-{(1S,2S)-2-[(4-{5-[4-(2-hydroxyethyl)piperazin-1-yl]-5,6,7,8-tetrahydronaphthalen-2-yl}phenyl)methoxy]cyclopentyl}[3,3′-bipyridine]-5-carboxamide]"
< 10 nM,< 10 nM,100 to 1000 nM,"Nc1ncc(-c2ccc(F)nc2)cc1C(=O)N[C@H]1CCC[C@@H]1OCc1ccc(-c2ccc3c(c2)CC(F)(F)C3N2CCN(CCO)CC2)cc1 (stereo partly drawn) [Example 86, 6-amino-N-{(1S,2S)-2-[(4-{2,2-difluoro-1-[4-(2-hydroxyethyl)piperazin-1-yl]-2,3-dihydro-1H-inden-5-yl}phenyl)methoxy]cyclopentyl}-6′-fluoro[3,3′-bipyridine]-5-carboxamide]"
< 10 nM,< 10 nM,100 to 1000 nM,"COc1ccnc(N)c1C(=O)N[C@H]1CCC[C@@H]1OCc1ccc(-c2ccc3c(c2)C(C)(C)CC3N2CCN(C)CC2)cc1 (stereo partly drawn) [Example 138, 2-amino-N-[(1S,2S)-2-({4-[3,3-dimethyl-1-(4-methylpiperazin-1-yl)-2,3-dihydro-1H-inden-5-yl]phenyl}methoxy)cyclopentyl]-4-methoxypyridine-3-carboxamide]"
< 10 nM,< 10 nM,100 to 1000 nM,"N#Cc1ccc(-c2cnc(N)c(C(=O)N[C@H]3CCC[C@@H]3OCc3ccc(-c4ccc5c(c4)CC[C@@H]5N4CCN(CCO)CC4)cc3)c2)cn1 [Example 153, 6-amino-6′-cyano-N-{(1S,2S)-2-[(4-{(1S)-1-[4-(2-hydroxyethyl)piperazin-1-yl]-2,3-dihydro-1H-inden-5-yl}phenyl)methoxy]cyclopentyl}[3,3′-bipyridine]-5-carboxamide]"
< 10 nM,10 to 100 nM,> 1000 nM,"CN1CC(C(=O)NC2Cc3ccc(-c4ccc(CO[C@H]5CCC[C@@H]5NC(=O)c5cc(-c6cnn(C)c6)cnc5N)cc4)cc3C2)C1 (stereo partly drawn) [Example 11, 2-amino-N-{(1S,2S)-2-[(4-{2-[(1-methylazetidine-3-carbonyl)amino]-2,3-dihydro-1H-inden-5-yl}phenyl)methoxy]cyclopentyl}-5-(1-methyl-1H-pyrazol-4-yl)pyridine-3-carboxamide]"
